Like-named read-outs stand apart in the source and are kept apart here.
Experiments:
[1] = Single inhaled exposure, dose 187.5 mg; asthma patients; Bohadana et al. (1980); cited from earlier work
[2] = test system: TS induced BAL inflammation; assay: Tobacco smoke (TS) induced BAL inflammation, 11 daily exposures, BAL cell counts; assay type: in vivo, A/J mice; settings: for % Inhibition, BAL Total cells / % Inhibition, BAL lymphocytes / % Inhibition, BAL macrophages / % Inhibition, BAL neutrophils: 24 hrs following 11 daily TS exposures
Description: Female inbred A/J mice (body weights on initial day of use: ˜20 g) were obtained from Harlan, full barrier bred and certified free from specified micro-organisms on receipt. The mice were housed, up to 5 per cage, in individually ventilated, polycarbonate solid bottomed cages (IVC) with grade 8 aspen chip bedding. Environment (airflow, temperature and humidity) within the cages was controlled by the IVC system (Techniplast). Food (RM 1, Special Diet Services) and water were provided ad libitum. Individual animals were identified by unique coloured “pentel” markings on their tails, weighed and randomly assigned to treatment groups.
In this exposure protocol, mice were exposed in groups of 5 in individual clear polycarbonate chambers (27 cm×16 cm×12 cm). The TS from the cigarettes was allowed to enter the exposure chambers at a flow rate of 100 ml/min. In order to minimise any potential problems caused by repeated exposure to a high level of TS (6 cigarettes), the exposure of the mice to TS was increased gradually over the exposure period to a maximum of 6 cigarettes. The exposure schedule used in this study was as follows:
A further group of mice were exposed to air on a daily basis for equivalent lengths of time as controls (no TS exposure).
The trachea was cannulated using a Portex nylon intravenous cannula (pink luer fitting) shortened to approximately 8 mm. Phosphate buffered saline (PBS) containing heparin (10 units/ml) was used as the lavage fluid. A volume of 0.4 ml was gently instilled and withdrawn 3 times using a 1 ml syringe and then placed in an Eppendorf tube and kept on ice prior to subsequent determinations.
Lavage fluid was separated from cells by centrifugation and the supernatant decanted and frozen for subsequent analysis. The cell pellet was re-suspended in a known volume of PBS and total cell numbers calculated by counting a stained (Turks stain) aliquot under a microscope using a haemocytometer.
The residual cell pellet was diluted to approximately 10^5 cells per ml. A volume of 500 μl was placed in the funnel of a cytospin slide and centrifuged for 8 min at 800 rpm. The slide was air dried and stained using ‘Kwik-Diff’ solutions (Shandon) as per the proprietary instructions. When dried and cover-slipped, differential cells were counted using light microscopy. Up to 400 cells were counted by unbiased operator using light microscopy. Cells were differentiated using standard morphometric techniques.
Since tests for normality were positive the data was subjected to a one way analysis of variance test (ANOVA), followed by a Bonferroni correction for multiple comparisons in order to test for significance between treatment groups. A “p” value of <0.05 was considered to be statistically significant. Percentage inhibitions were automatically calculated within the Excel spreadsheets for the cell data using the formula below: […]

[3] = intra-nasal 0.1 mg/kg theophylline/0.1 mg/kg dexamethasone versus oral 1 mg/kg theophylline/0.3 mg/kg dexamethasone
Description: (§1) The mice were terminally anaesthetised and blood collected by cardiac puncture into syringes containing 20 U lithium Heparin in 5 ul. The collected blood was mixed and decanted into eppendorf tubes before centrifugation in a microfuge. Plasma was collected and stored at −80° C. prior to analysis by an HPLC/MS/MS method. The equipment used in the measurement of plasma levels were a Micromann Quatro Micro Mass Spectrometer (Micromass UK Limited) and a Waters 2795 Alliance HT liquid chromatograph (Waters USA).
(§2) Samples were prepared for analysis by adding 200 μl of acetonitrile (containing 0.25 mg/l dextrorphan as an internal standard) to 50 μl of each thawed sample and standard and mixed vigorously. Each sample and standard was then centrifuged at 10000 g for 2 minutes and the supernatant removed for LC-MS/MS analysis.
(§3) Positive ions for parent compound and a specific fragment product were monitored in a Multiple Reaction Monitoring mode using a Micromass Quatro Micro Mass Spectrometer with Micromass MassLynx software version 4.0. A 25 μl aliquot of each sample and standard was injected onto the liquid chromatography system. Lowest order of quantification (LOQ) was determined as 0.016 mg/L with the detection limit being 0.003 mg/L.

[4] = cited from earlier work
[5] = in vivo; settings: A/J, mouse, 1 hour post dosing
Description: as §1, §2, §3

[6] = cited from earlier work; remark: listed apart in the source
[7] = test system: key inflammatory cells in COPD; settings: 500 mcg inhaled twice daily, 3 months, COPD patients; Hattatowa et al. 2002; cited from earlier work
[8] = test system: mouse model of asthma; settings: 350 mcg/kg intra-nasally; Shen et al. 2002; cited from earlier work
[9] = Intra-nasal dosing, Dexamethasone 0.1 mg/kg
[10] = Oral dosing, Dexamethasone 0.3 mg/kg
[11] = Intra-nasal dosing, Theophylline 0.5 mg/kg
[12] = Oral dosing, Theophylline 3 mg/kg
[13] = monotherapy, oral or intra-nasal

Molecule: Cn1c(=O)c2[nH]cnc2n(C)c1=O.NCCN [Aminophylline, theophylline ethylenediamine]
- Net peak theophylline plasma level [1]: 0.91 mg/L

Molecule: C[C@@H]1C[C@H]2[C@@H]3CCC4=CC(=O)C=C[C@]4(C)[C@@]3(F)[C@@H](O)C[C@]2(C)[C@@]1(O)C(=O)CO [Dexamethasone]
- % Inhibition, BAL Total cells [2, 9]: 13%
- % Inhibition, BAL lymphocytes [2, 9]: 14%
- % Inhibition, BAL macrophages [2, 9]: 10%
- % Inhibition, BAL neutrophils [2, 9]: 16%
- % Inhibition, BAL Total cells [2, 10]: −16%
- % Inhibition, BAL lymphocytes [2, 10]: −7%
- % Inhibition, BAL macrophages [2, 10]: −14%
- % Inhibition, BAL neutrophils [2, 10]: −46%

Molecule: Cn1c(=O)c2[nH]cnc2n(C)c1=O [Theophylline, 3,7-dihydro-1,3-dimethyl-1H-purine-2,6-dione]
- % Inhibition, BAL Total cells [2, 11]: 16%
- % Inhibition, BAL lymphocytes [2, 11]: 14%
- % Inhibition, BAL macrophages [2, 11]: 3%
- % Inhibition, BAL neutrophils [2, 11]: 25%
- % Inhibition, BAL Total cells [2, 12]: −11%
- % Inhibition, BAL lymphocytes [2, 12]: 1%
- % Inhibition, BAL macrophages [2, 12]: −4%
- % Inhibition, BAL neutrophils [2, 12]: −10%
- inhibition of total number of cells recovered in the BAL induced by TS exposure [2, 13]: Neither theophylline nor dexamethasone monotherapy when given orally or by the intra-nasal route significantly inhibited
- inhibitory effect on specific cell types in BAL (macrophages, neutrophils, lymphocytes) [2, 13]: No statistically significant inhibitory effect
- systemic theophylline levels, times lower intra-nasal vs oral [3]: ~17 times
- plasma concentration of theophylline, median value ([4]; 250 or 375 mg theophylline twice daily with 400 mcg budesonide, asthma patients, Evans et al.): 8700 ng/mL
- Average theophylline plasma level ([4]; Daily dose 400 mg oral, 4 weeks, Alexander et al. (1980)): 15.1 mg/L
- Average theophylline plasma level ([4]; Daily dose 600 mg oral, 4 weeks, Iversen et al. (1992)): 7.1 mg/L
- Average theophylline plasma level ([4]; Daily dose 300-600 mg oral, 4 weeks, Culpitt et al. (2002)): 9.5 mg/L
- theophylline plasma level in 20/25 patients (average not quoted) ([4]; Phyllocontin or Uniphylline, daily dose 562-573 mg oral, 4 weeks, U.S. Pat. No. 6,025,360): had levels ≧5 mg/L
- concentration at 1 h ([5]; mean theophylline plasma level, Intra-nasal 0.1 mg/kg theophylline in combination with 0.1 mg/kg Dexamethasone, TS exposed mice): 22 ± 9 ng/mL
- concentration at 1 h ([5]; mean theophylline plasma level, Intra-nasal 0.25 mg/kg theophylline in combination with 0.1 mg/kg Dexamethasone, TS exposed mice): 45 ± 10 ng/mL
- concentration at 1 h ([5]; mean theophylline plasma level, Intra-nasal 0.5 mg/kg theophylline in combination with 0.1 mg/kg Dexamethasone, TS exposed mice): 74 ± 13 ng/mL
- concentration at 1 h ([5]; mean theophylline plasma level, Oral 1 mg/kg theophylline in combination with 0.3 mg/kg Dexamethasone, TS exposed mice): 479 ± 47 ng/mL
- concentration at 1 h ([5]; mean theophylline plasma level, Oral 3 mg/kg theophylline in combination with 0.3 mg/kg Dexamethasone, TS exposed mice): 1370 ± 192 ng/mL
- concentration at 1 h ([5]; systemic theophylline exposure (plasma level), intra-nasal administration at the doses used (0.1-0.5 mg/kg)): < 100 ng/mL
- mean plasma half-life ([6]; adults): about 8 hours
- bioavailability from the gastrointestinal tract ([6]; oral absorption): 90-100%
- mean plasma half-life ([6]; premature neonates): approximately 30 hours
- time to peak levels following ingestion ([6]; slowed by the presence of food): 1 to 2 h
- mean plasma half-life ([6]; up to the age of 20): approximately 3.5 hours
- mean plasma half-life ([6]; up to the first year of life): 5 h
- mean plasma half-life ([6]; within the first 6 months): 12 h

Molecule: (6(,11(,16(,17( )-6,9-difluoro-11-hydroxy-16-methyl-3-oxo-17-(1-oxopropoxy)androsta-1,4-diene-17-carbothioic acid S-(fluoromethyl) ester [Fluticasone]
- reductions in key inflammatory cells in bronchial biopsies [7]: did not detect significant reductions

Molecule: (+)-[(RS)-16a,17a-Butylidenedioxy-11b, 21-dihydroxy-1,4-pregnadiene-3,20-dione] [Budesonide]
- efficacy in mouse model of asthma [8]: efficacious

Source: patent publication US9084799B2, “Inhaled combination therapy” (Pulmagen Therapeutics (Synergy) Limited, priority 2005, dated 2015)
